According to US7799824B2, “Quaternary salt CCR2 antagonists” (OraPharma, Inc., priority 2004, dated 2010):

These molecules were tested against T1, CCR2 (Homo sapiens, UniProt P41597) (assay: MCP-1 Receptor Binding Assay in THP-1 Cells). Conditions: MCP-1 binding to CCR2; test concentration of 25 μM, unless indicated otherwise; read-out: % Inhibition Ligand Binding.
T1 sequence (P41597 1-360 isoform P41597-2): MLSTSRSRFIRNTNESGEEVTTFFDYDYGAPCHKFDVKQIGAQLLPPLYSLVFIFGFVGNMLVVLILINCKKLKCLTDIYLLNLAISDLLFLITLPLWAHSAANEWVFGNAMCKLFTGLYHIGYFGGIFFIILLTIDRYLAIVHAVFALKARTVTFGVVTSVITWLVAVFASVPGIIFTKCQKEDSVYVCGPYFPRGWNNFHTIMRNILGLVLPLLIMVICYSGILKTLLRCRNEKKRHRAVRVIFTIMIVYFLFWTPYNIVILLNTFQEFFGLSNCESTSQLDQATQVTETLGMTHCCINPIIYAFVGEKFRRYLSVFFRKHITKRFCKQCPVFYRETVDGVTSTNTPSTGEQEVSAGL
Method: THP-1 cells were obtained from American Type Culture Collection (Manassas, Va., USA). […] The cell density was maintained between 0.5×10^6 cells/mL.
Cells were then harvested onto a filter plate, dried, and 20 μL of Microscint 20 was added to each well. Plates were counted in a TopCount NXT, Microplate Scintillation & Luminescence Counter (Perkin-Elmer Life Sciences, Inc. Boston, Mass.). Blank values (buffer only) were subtracted from all values and drug treated values were compared to vehicle treated values. 1 μM cold MCP-1 was used for nonspecific binding.

Row | inhibition at 25 µM [%] | SMILES
1 | 37 | Cc1cc(Cl)cc2c1OCC(C(=O)NCc1ccc(C[N+](C)(C)C3CCOCC3)cc1)=C2 [Cpd 121, (4-{[(6-chloro-8-methyl-2H-chromene-3-carbonyl)-amino]-methyl}-benzyl)-dimethyl-(tetrahydro-pyran-4-yl)-ammonium iodide]
2 | 100 | C[N+](C)(Cc1ccc(NC(=O)C2=Cc3cc(F)ccc3OC2)cc1)C1CCCCC1 [Cpd 123, cyclohexyl-{4-[(6-fluoro-2H-chromene-3-carbonyl)-amino]-benzyl}-dimethyl-ammonium iodide]
3 | 100 | C[N+](C)(Cc1ccc(NC(=O)C2=Cc3c(F)cccc3OC2)cc1)C1CCCCC1 [Cpd 124, cyclohexyl-{4-[(5-fluoro-2H-chromene-3-carbonyl)-amino]-benzyl}-dimethyl-ammonium iodide]
4 | 100 | C[N+](C)(Cc1ccc(NC(=O)C2=Cc3cc(C(F)(F)F)ccc3OC2)cc1)C1CCCCC1 [Cpd 125, cyclohexyl-dimethyl-{4-[(6-trifluoromethyl-2H-chromene-3-carbonyl)-amino]-benzyl}-ammonium iodide]

Same assay, conditions: THP-1 cells, 0.5 nM 125I labeled MCP-1, 2 hours at 30° C.; read-out: Mean Ligand Binding IC50 (inhibition of MCP-1 binding to CCR2)

Row | IC50 [nM] | SMILES
5 | 520 | C[N+](C)(Cc1ccc(NC(=O)C2=Cc3c(Cl)cc(Cl)cc3OC2)cc1)C1CCOCC1 [Cpd 100, {4-[(5,7-dichloro-2H-chromene-3-carbonyl)-amino]-benzyl}-dimethyl-(tetrahydro-pyran-4-yl)-ammonium iodide]
6 | 1100 | C[N+](C)(Cc1ccc(NC(=O)C2=Cc3c(Cl)cc(Cl)cc3OC2)cc1)C1CCCCC1 [Cpd 101, cyclohexyl-{4-[(5,7-dichloro-2H-chromene-3-carbonyl)-amino]-benzyl}-dimethyl-ammonium iodide]
7 | 190 | C[N+](C)(Cc1ccc(NC(=O)C2=Cc3cc(Cl)cc(Cl)c3OC2)cc1)C1CCOCC1 [Cpd 102, {4-[(6,8-dichloro-2H-chromene-3-carbonyl)-amino]-benzyl}-dimethyl-(tetrahydro-pyran-4-yl)-ammonium iodide]
8 | 820 | Cc1ccc2c(c1)C=C(C(=O)Nc1ccc(C[N+](C)(C)C3CCOCC3)cc1)CO2 [Cpd 103, dimethyl-{4-[(6-methyl-2H-chromene-3-carbonyl)-amino]-benzyl}-(tetrahydro-pyran-4-yl)-ammonium iodide]
9 | 1900 | COc1ccc2c(c1)C=C(C(=O)Nc1ccc(C[N+](C)(C)C3CCOCC3)cc1)CO2 [Cpd 104, {4-[(6-methoxy-2H-chromene-3-carbonyl)-amino]-benzyl}-dimethyl-(tetrahydro-pyran-4-yl)-ammonium iodide]
10 | 320 | Cc1ccc2c(c1)C=C(C(=O)Nc1ccc(C[N+](C)(C)C3CCCCC3)cc1)CO2 [Cpd 105, cyclohexyl-dimethyl-{4-[(6-methyl-2H-chromene-3-carbonyl)-amino]-benzyl}-ammonium iodide]
11 | 1100 | COc1ccc2c(c1)C=C(C(=O)Nc1ccc(C[N+](C)(C)C3CCCCC3)cc1)CO2 [Cpd 106, cyclohexyl-{4-[(6-methoxy-2H-chromene-3-carbonyl)-amino]-benzyl}-dimethyl-ammonium iodide]
12 | 170 | C[N+](C)(Cc1ccc(NC(=O)C2=Cc3cc(Cl)cc(Cl)c3OC2)cc1)C1CCCCC1 [Cpd 107, cyclohexyl-{4-[(6,8-dichloro-2H-chromene-3-carbonyl)-amino]-benzyl}-dimethyl-ammonium iodide]
13 | 3100 | C[N+](C)(Cc1ccc(NC(=O)C2=Cc3cc(Cl)ccc3OC2)cc1)C[C@H]1CCCO1 [Cpd 108, (2R)-{4-[(6-chloro-2H-chromene-3-carbonyl)-amino]-benzyl}-dimethyl-(tetrahydro-furan-2-ylmethyl)-ammonium iodide]
14 | 5300 | C[N+](C)(Cc1ccc(NC(=O)C2=Cc3cc(Cl)ccc3OC2)cc1)C[C@@H]1CCCO1 [Cpd 109, (2S)-{4-[(6-chloro-2H-chromene-3-carbonyl)-amino]-benzyl}-dimethyl-(tetrahydro-furan-2-ylmethyl)-ammonium iodide]
15 | 320 | C[N+](C)(Cc1ccc(NC(=O)C2=Cc3cc(Cl)ccc3OC2)cc1)[C@H]1CC2CCC1C2 (stereo partly drawn) [Cpd 110, (2S)-bicyclo[2.2.1]hept-2-yl-{4-[(6-chloro-2H-chromene-3-carbonyl)-amino]-benzyl}-dimethyl-ammonium iodide]
16 | 2000 | C[N+](C)(Cc1ccc(NC(=O)C2=Cc3cc(Cl)cc(Cl)c3OC2)cc1)C1CC2CCC1C2 (centres unmarked) [Cpd 111, bicyclo[2.2.1]hept-2-yl-{4-[(6,8-dichloro-2H-chromene-3-carbonyl)-amino]-benzyl}-dimethyl-ammonium iodide]
17 | 150 | Cc1cccc2c1OCC(C(=O)Nc1ccc(C[N+](C)(C)C3CCOCC3)cc1)=C2 [Cpd 112, dimethyl-{4-[(8-methyl-2H-chromene-3-carbonyl)-amino]-benzyl}-(tetrahydro-pyran-4-yl)-ammonium iodide]
18 | 530 | Cc1cccc2c1OCC(C(=O)Nc1ccc(C[N+](C)(C)C3CCCCC3)cc1)=C2 [Cpd 113, cyclohexyl-dimethyl-{4-[(8-methyl-2H-chromene-3-carbonyl)-amino]-benzyl}-ammonium iodide]
19 | 60 | Cc1cc(Cl)cc2c1OCC(C(=O)Nc1ccc(C[N+](C)(C)C3CCCCC3)cc1)=C2 [Cpd 114, {4-[(6-chloro-8-methyl-2H-chromene-3-carbonyl)-amino]-benzyl}-cyclohexyl-dimethyl-ammonium iodide]
20 | 50 | Cc1cc(Cl)cc2c1OCC(C(=O)Nc1ccc(C[N+](C)(C)C3CCOCC3)cc1)=C2 [Cpd 115, {4-[(6-chloro-8-methyl-2H-chromene-3-carbonyl)-amino]-benzyl}-dimethyl-(tetrahydro-pyran-4-yl)-ammonium iodide]
21 | 600 | C[N+](C)(Cc1ccc(NC(=O)C2=Cc3ccc(Cl)c(Cl)c3OC2)cc1)C1CCCCC1 [Cpd 116, cyclohexyl-{4-[(7,8-dichloro-2H-chromene-3-carbonyl)-amino]-benzyl}-dimethyl-ammonium iodide]
22 | 120 | Cc1cc(Cl)cc2c1OCC(C(=O)Nc1ccc(C[N+](C)(C)C3CC4CCC3C4)cc1)=C2 (centres unmarked) [Cpd 117, bicyclo[2.2.1]hept-2-yl-{4-[(6-chloro-8-methyl-2H-chromene-3-carbonyl)-amino]-benzyl}-dimethyl-ammonium iodide]
23 | 200 | Cc1cc(Cl)cc2c1OCC(C(=O)Nc1ccc(C[N+](C)(C)C3CCCCCC3)cc1)=C2 [Cpd 118, {4-[(6-chloro-8-methyl-2H-chromene-3-carbonyl)-amino]-benzyl}-cycloheptyl-dimethyl-ammonium iodide]
24 | 100 | Cc1cc(Cl)cc2c1OCC(C(=O)Nc1ccc(C[N+](C)(C)C3CCCC3)cc1)=C2 [Cpd 119, {4-[(6-chloro-8-methyl-2H-chromene-3-carbonyl)-amino]-benzyl}-cyclopentyl-dimethyl-ammonium iodide]
25 | 30 | Cc1cc(Cl)cc2c1OCC(C(=O)Nc1ccc(C[N+](C)(C)C3CCSC3)cc1)=C2 (centres unmarked) [Cpd 120, {4-[(6-chloro-8-methyl-2H-chromene-3-carbonyl)-amino]-benzyl}-dimethyl-(tetrahydro-thiophen-3-yl)-ammonium iodide]
26 | 580 | C[N+](C)(Cc1ccc(NC(=O)C2=Cc3cc(Cl)cc(Cl)c3OC2)cc1)C1CCSC1 (centres unmarked) [Cpd 122, {4-[(6,8-dichloro-2H-chromene-3-carbonyl)-amino]-benzyl}-dimethyl-(tetrahydro-thiophen-3-yl)-ammonium iodide]
